≈ marks a conversion by molar mass, not a printed value.
Key:
Assay type in all cases: functional
[1] = system: Staphylococcus aureus; test: Antibacterial activity against methicillin-resistant Staphylococcus aureus N315 after 24 hrs by micro broth dilution method; conditions: N315, 24 h
[2] = system: Staphylococcus aureus; test: Antibacterial activity against drug-resistant Staphylococcus aureus after 24 hrs by micro broth dilution method
[3] = system: Staphylococcus aureus; test: Antibacterial activity against Staphylococcus aureus ATCC 25923 after 24 hrs by micro broth dilution method; conditions: ATCC 25923, 24 h
[4] = system: Staphylococcus aureus; test: Antibacterial activity against Staphylococcus aureus ATCC 29213 after 24 hrs by micro broth dilution method; conditions: ATCC 29213, 24 h
[5] = system: Escherichia coli; test: Antibacterial activity against drug-resistant Escherichia coli after 24 hrs by micro broth dilution method
[6] = system: Escherichia coli; test: Antibacterial activity against Escherichia coli ATCC 25922 after 24 hrs by micro broth dilution method; conditions: ATCC 25922, 24 h
[7] = system: Pseudomonas aeruginosa; test: Antibacterial activity against drug-resistant Pseudomonas aeruginosa after 24 hrs by micro broth dilution method
[8] = system: Pseudomonas aeruginosa; test: Antibacterial activity against Pseudomonas aeruginosa ATCC 27853 after 24 hrs by micro broth dilution method; conditions: ATCC 27853, 24 h
[9] = system: Candida albicans; test: Antifungal activity against drug-resistant Candida albicans after 24 hrs by micro broth dilution method
[10] = system: Candida albicans; test: Antifungal activity against Candida albicans ATCC 90023 after 24 hrs by micro broth dilution method; conditions: ATCC 90023, 24 h
[11] = system: Candida tropicalis; test: Antifungal activity against Candida tropicalis after 24 hrs by micro broth dilution method
[12] = system: Pseudomonas aeruginosa; test: Potency index, ratio of norfloxacin MIC to compound MIC for Pseudomonas aeruginosa ATCC 27853
[13] = system: Pseudomonas aeruginosa; test: Potency index, ratio of metronidazole MIC to compound MIC for Pseudomonas aeruginosa ATCC 27853

SMILES	MIC [1]	MIC [2]	MIC [3]	MIC [4]	MIC [5]	MIC [6]	MIC [7]	MIC [8]	MIC [9]	MIC [10]	MIC [11]	Ratio [12]	Ratio [13]
Cc1ncc([N+](=O)[O-])n1/C(=C/c1ccc(C#N)cc1)C(C)O (stereo not given)	1710 µM (≈ 510 µg/mL)	1710 µM (≈ 510 µg/mL)	1710 µM (≈ 510 µg/mL)	1710 µM (≈ 510 µg/mL)	1710 µM (≈ 510 µg/mL)	860 µM (≈ 257 µg/mL)	1710 µM (≈ 510 µg/mL)	860 µM (≈ 257 µg/mL)	512 µg/mL (≈ 1720 µM)	64 µg/mL (≈ 215 µM)	512 µg/mL (≈ 1720 µM)		
CC(=O)/C(=C\c1ccc(F)cc1)n1c([N+](=O)[O-])cnc1C	1760 µM (≈ 509 µg/mL)	1760 µM (≈ 509 µg/mL)	880 µM (≈ 255 µg/mL)	1760 µM (≈ 509 µg/mL)	1760 µM (≈ 509 µg/mL)	110 µM (≈ 31.8 µg/mL)	880 µM (≈ 255 µg/mL)	440 µM (≈ 127 µg/mL)	256 µg/mL (≈ 885 µM)	128 µg/mL (≈ 442 µM)	256 µg/mL (≈ 885 µM)	4 - 16	
Cc1ncc([N+](=O)[O-])n1/C(=C/c1ccc(F)cc1)C(C)O (stereo not given)	1760 µM (≈ 513 µg/mL)	1710 µM (≈ 498 µg/mL)	880 µM (≈ 256 µg/mL)	1710 µM (≈ 498 µg/mL)	1710 µM (≈ 498 µg/mL)	440 µM (≈ 128 µg/mL)	880 µM (≈ 256 µg/mL)	110 µM (≈ 32 µg/mL)	512 µg/mL (≈ 1760 µM)	64 µg/mL (≈ 220 µM)	128 µg/mL (≈ 439 µM)	4 - 16	
CCn1c2ccccc2c2cc(/C=C(\C(C)O)n3c([N+](=O)[O-])cnc3C)ccc21 (stereo not given)	1310 µM (≈ 511 µg/mL)	1310 µM (≈ 511 µg/mL)	1310 µM (≈ 511 µg/mL)	660 µM (≈ 258 µg/mL)	1310 µM (≈ 511 µg/mL)	1310 µM (≈ 511 µg/mL)	1310 µM (≈ 511 µg/mL)	1310 µM (≈ 511 µg/mL)	512 µg/mL (≈ 1310 µM)	512 µg/mL (≈ 1310 µM)	256 µg/mL (≈ 656 µM)		
Cc1ncc([N+](=O)[O-])n1/C(=C/c1ccc(Cl)cc1)C(C)O (stereo not given)	1670 µM (≈ 514 µg/mL)	830 µM (≈ 255 µg/mL)	1670 µM (≈ 514 µg/mL)	830 µM (≈ 255 µg/mL)	1670 µM (≈ 514 µg/mL)	1670 µM (≈ 514 µg/mL)	1670 µM (≈ 514 µg/mL)	410 µM (≈ 126 µg/mL)	512 µg/mL (≈ 1660 µM)	16 µg/mL (≈ 52 µM)	256 µg/mL (≈ 832 µM)		
Cc1ncc([N+](=O)[O-])n1/C(=C/c1ccccc1Cl)C(C)O (stereo not given)	1670 µM (≈ 514 µg/mL)	1670 µM (≈ 514 µg/mL)	1670 µM (≈ 514 µg/mL)	1670 µM (≈ 514 µg/mL)	1670 µM (≈ 514 µg/mL)	210 µM (≈ 64.6 µg/mL)	1670 µM (≈ 514 µg/mL)	830 µM (≈ 255 µg/mL)	512 µg/mL (≈ 1660 µM)	32 µg/mL (≈ 104 µM)	512 µg/mL (≈ 1660 µM)		
CC(=O)/C(=C\c1ccc(C)cc1)n1c([N+](=O)[O-])cnc1C	1790 µM (≈ 511 µg/mL)	220 µM (≈ 62.8 µg/mL)	900 µM (≈ 257 µg/mL)	450 µM (≈ 128 µg/mL)	900 µM (≈ 257 µg/mL)	56 µM (≈ 16 µg/mL)	1790 µM (≈ 511 µg/mL)	450 µM (≈ 128 µg/mL)	512 µg/mL (≈ 1790 µM)	256 µg/mL (≈ 897 µM)	256 µg/mL (≈ 897 µM)	4 - 16	
Cc1ncc([N+](=O)[O-])n1/C(=C/c1ccccc1)C(C)O (stereo not given)	1870 µM (≈ 511 µg/mL)	1870 µM (≈ 511 µg/mL)	1870 µM (≈ 511 µg/mL)	1870 µM (≈ 511 µg/mL)	1870 µM (≈ 511 µg/mL)	1870 µM (≈ 511 µg/mL)	940 µM (≈ 257 µg/mL)	230 µM (≈ 62.9 µg/mL)	512 µg/mL (≈ 1870 µM)	16 µg/mL (≈ 58.5 µM)	128 µg/mL (≈ 468 µM)	4 - 16	
Cc1ccc(/C=C(\C(C)O)n2c([N+](=O)[O-])cnc2C)cc1 (stereo not given)	1780 µM (≈ 511 µg/mL)	1780 µM (≈ 511 µg/mL)	890 µM (≈ 256 µg/mL)	1780 µM (≈ 511 µg/mL)	1780 µM (≈ 511 µg/mL)	440 µM (≈ 126 µg/mL)	890 µM (≈ 256 µg/mL)	440 µM (≈ 126 µg/mL)	512 µg/mL (≈ 1780 µM)	64 µg/mL (≈ 223 µM)	128 µg/mL (≈ 445 µM)	4	7
CC(=O)/C(=C\c1ccccc1Cl)n1c([N+](=O)[O-])cnc1C	1640 µM (≈ 501 µg/mL)	1640 µM (≈ 501 µg/mL)	820 µM (≈ 251 µg/mL)	820 µM (≈ 251 µg/mL)	1640 µM (≈ 501 µg/mL)	410 µM (≈ 125 µg/mL)	830 µM (≈ 254 µg/mL)	830 µM (≈ 254 µg/mL)	512 µg/mL (≈ 1670 µM)	32 µg/mL (≈ 105 µM)	64 µg/mL (≈ 209 µM)		
CCn1c2ccccc2c2cc(/C=C(\C(C)=O)n3c([N+](=O)[O-])cnc3C)ccc21	1640 µM (≈ 637 µg/mL)	820 µM (≈ 319 µg/mL)	820 µM (≈ 319 µg/mL)	1640 µM (≈ 637 µg/mL)	1640 µM (≈ 637 µg/mL)	1640 µM (≈ 637 µg/mL)	1640 µM (≈ 637 µg/mL)	1640 µM (≈ 637 µg/mL)	512 µg/mL (≈ 1320 µM)	256 µg/mL (≈ 659 µM)	256 µg/mL (≈ 659 µM)		
Cc1ncc([N+](=O)[O-])n1/C(=C/c1ccc(N(C)C)cc1)C(C)O (stereo not given)	1620 µM (≈ 513 µg/mL)	1620 µM (≈ 513 µg/mL)	810 µM (≈ 256 µg/mL)	1620 µM (≈ 513 µg/mL)	1620 µM (≈ 513 µg/mL)	810 µM (≈ 256 µg/mL)	1620 µM (≈ 513 µg/mL)	400 µM (≈ 127 µg/mL)	512 µg/mL (≈ 1620 µM)	64 µg/mL (≈ 202 µM)	128 µg/mL (≈ 405 µM)	4	7

— ChEMBL document CHEMBL4177646, “Discovery of novel nitroimidazole enols as Pseudomonas aeruginosa DNA cleavage agents” (Bioorg Med Chem, 2017)
